Assays:
lambsquarters = test: Test Example 4: herbicidal effect by soil treatment (Table 19, symbol O); format: in vivo, lambsquarters (Chenopodium album); settings: amount of applied herbicide 320 g/ha
Summary of the method: (§1)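 Pre-emergence style soil spray: seeds under ~1.5 cm sterilized diluvial soil received a uniform coat of emulsion diluted to the predetermined herbicide amount. Greenhouse 25–30° C; readout at week three on previously defined criteria.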

Italian ryegrass = test: Test Example 4: herbicidal effect by soil treatment (Table 19, symbol K); format: in vivo, Italian ryegrass (Lolium multiflorum); settings: amount of applied herbicide 320 g/ha
Summary of the method: as §1

Chinese sprangletop = test: Test Example 3: herbicidal effect by foliage application, Wagner pot (Table 18, symbol D); format: in vivo, chinese sprangletop (Leptochloa chinensis); settings: amount of applied herbicide 320 g/ha
Summary of the method: (§2)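 Plants were sown in alluvial soil held under 0.1–0.5 cm standing water and grown 14 days in a greenhouse at 25–30 °C. An emulsifiable formulation, water-diluted to the set dose, was then sprayed onto the foliage, and effects were scored three weeks later using previously defined criteria.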

wild oat = test: Test Example 4: herbicidal effect by soil treatment (Table 19, symbol I); format: in vivo, wild oat (Avena fatua); settings: amount of applied herbicide 320 g/ha
Summary of the method: as §1

green foxtail = test: Test Example 4: herbicidal effect by soil treatment (Table 19, symbol G); format: in vivo, green foxtail (Setaria viridis); settings: amount of applied herbicide 320 g/ha
Summary of the method: as §1

rice flat sedge = test: Test Example 3: herbicidal effect by foliage application, Wagner pot (Table 18, symbol E); format: in vivo, rice flat sedge (Cyperus iria); settings: amount of applied herbicide 320 g/ha
Summary of the method: as §2

chickweed = test: Test Example 4: herbicidal effect by soil treatment (Table 19, symbol P); format: in vivo, common chickweed (Stellaria media); settings: amount of applied herbicide 320 g/ha
Summary of the method: as §1

redroot pigweed = test: Test Example 4: herbicidal effect by soil treatment (Table 19, symbol N); format: in vivo, redroot pigweed (Amaranthus retroflexus); settings: amount of applied herbicide 320 g/ha
Summary of the method: as §1

oval-leafed pondweed [1] = test: Test Example 1: herbicidal activity, application before weed generation under submerged conditions (Table 16, symbol C); format: in vivo, oval-leafed pondweed (Monochoria vaginalis); settings: 320 g/ha applied herbicide
Summary of the method: (§3)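 Alluvial soil was flooded to 4 cm depth, weed seeds were sown mixed and 2.5-leaf rice seedlings were transplanted. On sowing day, the compound's emulsion, diluted in water to a set dose, was applied to the water surface. Plants grew at 25–30 °C and were scored 0–5 after three weeks.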

velvetleaf = test: Test Example 4: herbicidal effect by soil treatment (Table 19, symbol M); format: in vivo, velvetleaf (Abutilon theophrasti); settings: amount of applied herbicide 320 g/ha
Summary of the method: as §1

Japanese bulrush [2] = test: Test Example 1: herbicidal activity, application before weed generation under submerged conditions (Table 16, symbol B); format: in vivo, Japanese bulrush (Schoenoplectus juncoides); settings: 320 g/ha applied herbicide
Summary of the method: as §3

windgrass = test: Test Example 4: herbicidal effect by soil treatment (Table 19, symbol L); format: in vivo, windgrass (Apera spica-venti); settings: amount of applied herbicide 320 g/ha
Summary of the method: as §1

late watergrass [3] = test: Test Example 1: herbicidal activity, application before weed generation under submerged conditions (Table 16, symbol A); format: in vivo, late watergrass (Echinochloa oryzicola); settings: 320 g/ha applied herbicide
Summary of the method: as §3

southern crabgrass = test: Test Example 4: herbicidal effect by soil treatment (Table 19, symbol F); format: in vivo, southern crabgrass (Digitaria ciliaris); settings: amount of applied herbicide 320 g/ha
Summary of the method: as §1

oval-leafed pondweed [4] = test: Test Example 2: herbicidal activity, application during weed generation under submerged conditions (Table 17, symbol C); format: in vivo, oval-leafed pondweed (Monochoria vaginalis); settings: AAH 320 g/ha; application during weed generation, submerged conditions
Summary of the method: (§4)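 Herbicide emulsion, diluted with water to the chosen amount, is applied onto 4 cm floodwater over alluvial soil where the weeds were co-sown and raised at 25–30° C. Application timing: 1–2 leaves. Assessment: three weeks afterwards.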

blackgrass = test: Test Example 4: herbicidal effect by soil treatment (Table 19, symbol J); format: in vivo, blackgrass (Alopecurus myosuroides); settings: amount of applied herbicide 320 g/ha
Summary of the method: as §1

persian speedwell = test: Test Example 4: herbicidal effect by soil treatment (Table 19, symbol R); format: in vivo, Persian speedwell (Veronica persica); settings: amount of applied herbicide 320 g/ha
Summary of the method: as §1

barnyard grass [5] = test: Test Example 3: herbicidal effect by foliage application, Wagner pot (Table 18, symbol H); format: in vivo, barnyard grass (Echinochloa crus-galli); settings: amount of applied herbicide 320 g/ha
Summary of the method: as §2

barnyard grass [6] = test: Test Example 4: herbicidal effect by soil treatment (Table 19, symbol H); format: in vivo, barnyard grass (Echinochloa crus-galli); settings: amount of applied herbicide 320 g/ha
Summary of the method: as §1

Japanese bulrush [7] = test: Test Example 2: herbicidal activity, application during weed generation under submerged conditions (Table 17, symbol B); format: in vivo, Japanese bulrush (Schoenoplectus juncoides); settings: AAH 320 g/ha; application during weed generation, submerged conditions
Summary of the method: as §4

late watergrass [8] = test: Test Example 2: herbicidal activity, application during weed generation under submerged conditions (Table 17, symbol A); format: in vivo, late watergrass (Echinochloa oryzicola); settings: AAH 320 g/ha; application during weed generation, submerged conditions
Summary of the method: as §4

CCCC(=O)Oc1c(C)nn(C)c(=O)c1-c1c(-c2ccc(C(F)(F)F)cc2F)sc2ccc(F)cc12 [2-355] was tested, and the “herbicidal effect, O: lambsquarters” value (lambsquarters) was 3 (Herbicidal rate of 40% or more and less than 70%), the “herbicidal effect, K: Italian ryegrass” value (Italian ryegrass) was 4 (Herbicidal rate of 70% or more and less than 90%) and the “herbicidal effect on D: Chinese sprangletop” value (Chinese sprangletop) was 5 (Herbicidal rate of 90% or more (almost completely withered)). For the same molecule, the “herbicidal effect, I: wild oat” value (wild oat) was 0 (Herbicidal rate of 5% or less (almost no effect)), the “herbicidal effect, G: green foxtail” value (green foxtail) was 0 (Herbicidal rate of 5% or less (almost no effect)) and the “herbicidal effect on E: rice flat sedge” value (rice flat sedge) was 5 (Herbicidal rate of 90% or more (almost completely withered)). For the same molecule, the “herbicidal effect, P: chickweed” value (chickweed) was 3 (Herbicidal rate of 40% or more and less than 70%), the “herbicidal effect, N: redroot pigweed” value (redroot pigweed) was 0 (Herbicidal rate of 5% or less (almost no effect)) and the “Herbicidal effect on C: oval-leafed pondweed (grade 0-5)” value (oval-leafed pondweed [1]) was 0 (Herbicidal rate of 5% or less (almost no effect)). For the same molecule, the “herbicidal effect, M: velvetleaf” value (velvetleaf) was 0 (Herbicidal rate of 5% or less (almost no effect)), the “Herbicidal effect on B: Japanese bulrush (grade 0-5)” value (Japanese bulrush [2]) was 3 (Herbicidal rate of 40% or more and less than 70%) and the “herbicidal effect, L: windgrass” value (windgrass) was 3 (Herbicidal rate of 40% or more and less than 70%). For the same molecule, the “Herbicidal effect on A: late watergrass (grade 0-5)” value (late watergrass [3]) was 4 (Herbicidal rate of 70% or more and less than 90%), the “herbicidal effect, F: southern crabgrass” value (southern crabgrass) was 0 (Herbicidal rate of 5% or less (almost no effect)) and the “herbicidal effect rating, C: oval-leafed pondweed” value (oval-leafed pondweed [4]) was 3 (Herbicidal rate of 40% or more and less than 70%). The “herbicidal effect, J: blackgrass” value (blackgrass) was 0 (Herbicidal rate of 5% or less (almost no effect)), the “herbicidal effect, R: persian speedwell” value (persian speedwell) was 3 (Herbicidal rate of 40% or more and less than 70%) and the “herbicidal effect on H: barnyard grass” value (barnyard grass [5]) was 5 (Herbicidal rate of 90% or more (almost completely withered)). The “herbicidal effect, H: barnyard grass” value (barnyard grass [6]) was 0 (Herbicidal rate of 5% or less (almost no effect)), the “herbicidal effect rating, B: Japanese bulrush” value (Japanese bulrush [7]) was 3 (Herbicidal rate of 40% or more and less than 70%) and the “herbicidal effect rating, A: late watergrass” value (late watergrass [8]) was 3 (Herbicidal rate of 40% or more and less than 70%).

From US20230085307A1, “PYRIDAZINONE COMPOUND AND HERBICIDE” (NISSAN CHEMICAL CORPORATION, priority 2019, published 2023)
